These results are taken from patent publication US7166738B2, “Non-nucleoside reverse transcriptase inhibitors” (Roche Palo Alto LLC, priority 2004, dated 2007).

Each structure is given as a SMILES string.

What is called melting point is the temperature, or range, at which the solid turns liquid.

`CSCCNS(=O)(=O)c1ccc(NC(=O)Cc2ccc(C)c(Oc3cc(Cl)cc(C#N)c3)c2)c(C)c1` [Compound I-130, 2-[3-(3-Chloro-5-cyano-phenoxy)-4-methyl-phenyl]-N-[2-methyl-4-(2-methylsulfanyl-ethylsulfamoyl)-phenyl]-acetamide] had a melting point of 155.6 to 156.6 °C.

`CSCCCNS(=O)(=O)c1ccc(NC(=O)Cc2ccc(C)c(Oc3cc(Cl)cc(C#N)c3)c2)c(C)c1` [Compound I-131, 2-[3-(3-Chloro-5-cyano-phenoxy)-4-methyl-phenyl]-N-[2-methyl-4-(3-methylsulfanyl-propylsulfamoyl)-phenyl]-acetamide] came in with a melting point of 159.9 to 162.8 °C.

For `COc1cc(CC(=O)Nc2ccc(S(N)(=O)=O)cc2)cc(Oc2cc(Cl)cc(C#N)c2)c1` [Compound I-132, 2-[3-(3-Chloro-5-cyano-phenoxy)-5-methoxy-phenyl]-N-(4-sulfamoyl-phenyl)-acetamide], the melting point fell in the range of 184.1 to 185.5 °C.

In turn, `COc1cc(CC(=O)Nc2ccc(S(N)(=O)=O)cc2C)cc(Oc2cc(Cl)cc(C#N)c2)c1` [Compound I-133, 2-[3-(3-Chloro-5-cyano-phenoxy)-5-methoxy-phenyl]-N-(2-methyl-4-sulfamoyl-phenyl)-acetamide] showed a melting point of 169.9 to 171.1 °C.

`COc1cc(CC(=O)Nc2ccc(S(N)(=O)=O)cc2Cl)cc(Oc2cc(Cl)cc(C#N)c2)c1` [Compound I-136, 2-[3-(3-Chloro-5-cyano-phenoxy)-5-methoxy-phenyl]-N-(2-chloro-4-sulfamoyl-phenyl)-acetamide] registered a melting point of 159 to 161.1 °C.

On to `Cc1cc(S(=O)(=O)CCC#N)ccc1NC(=O)Cc1ccc(C)c(Oc2cc(Cl)cc(C#N)c2)c1` [Compound I-137, 2-[3-(3-Chloro-5-cyano-phenoxy)-4-methyl-phenyl]-N-[4-(2-cyano-ethanesulfonyl)-2-methyl-phenyl]-acetamide], for which the melting point lay in the range of 186.1 to 188 °C.

As to `CCCC(=O)N(C)S(=O)(=O)c1ccc(NC(=O)Cc2ccc(Cl)c(Oc3cc(Cl)cc(C#N)c3)c2F)c(Cl)c1` [Compound I-139, N-[4-(Butyryl-methyl-sulfamoyl)-2-chloro-phenyl]-2-[4-chloro-3-(3-chloro-5-cyano-phenoxy)-2-fluoro-phenyl]-acetamide], the melting point lay in the range of 186.9 to 187.6 °C.

In turn, `Cc1cc(CC(=O)Nc2ccc(S(N)(=O)=O)cc2)cc(Oc2cc(Cl)cc(C#N)c2)c1` [Compound I-141, 2-[3-(3-Chloro-5-cyano-phenoxy)-5-methyl-phenyl]-N-(4-sulfamoyl-phenyl)-acetamide] showed a melting point of 183.9 to 185.2 °C.

Regarding `Cc1cc(CC(=O)Nc2ccc(S(N)(=O)=O)cc2C)cc(Oc2cc(Cl)cc(C#N)c2)c1` [Compound I-142, 2[3-(3-Chloro-5-cyano-phenoxy)-5-methyl-phenyl]-N-(2-methyl-4-sulfamoyl-phenyl)-acetamide], the melting point fell in the range of 184.8 to 186 °C.

Take `Cc1cc(CC(=O)Nc2ccc(S(N)(=O)=O)cc2Cl)cc(Oc2cc(Cl)cc(C#N)c2)c1` [Compound I-143, 2-[3-(3-Chloro-5-cyano-phenoxy)-5-methyl-phenyl]-N-(2-chloro-4-sulfamoyl-phenyl)-acetamide]: the melting point is 194.1 to 195.9 °C.

On to `N#Cc1cccc(Oc2cc(CC(=O)Nc3ccc(S(N)(=O)=O)cc3)cc3ccoc23)c1` [Compound I-144, 2-[7-(3-Cyano-phenoxy)-benzofuran-5-yl]-N-(4-sulfamoyl-phenyl)-acetamide], for which the melting point was 196.4 to 198.7 °C.

In the case of `Cc1cc(S(N)(=O)=O)ccc1NC(=O)Cc1cc(Oc2cccc(C#N)c2)c2occc2c1` [Compound I-145, 2-[7-(3-Cyano-phenoxy)-benzofuran-5-yl]-N-(2-methyl-4-sulfamoyl-phenyl)-acetamide], the melting point lay within 218.9 to 220 °C.

The molecule `Cc1cc(CC(=O)Nc2ccc(S(N)(=O)=O)cc2)cc(Oc2cc(C#N)ccc2Cl)c1` [Compound I-146, 2-[3-(2-Chloro-5-cyano-phenoxy)-5-methyl-phenyl]-N-(4-sulfamoyl-phenyl)-acetamide] showed a melting point of 235.9 to 236.7 °C.

Regarding `Cc1cc(CC(=O)Nc2ccc(S(N)(=O)=O)cc2C)cc(Oc2cc(C#N)ccc2Cl)c1` [Compound I-147, 2-[3-(2-Chloro-5-cyano-phenoxy)-5-methyl-phenyl]-N-(2-methyl-4-sulfamoyl-phenyl)-acetamide], the melting point was 200.3 to 201.1 °C.

`Cc1cc(CC(=O)Nc2ccc(S(N)(=O)=O)cc2Cl)cc(Oc2cc(C#N)ccc2Cl)c1` [Compound I-148, 2-[3-(2-Chloro-5-cyano-phenoxy)-5-methyl-phenyl]-N-(2-chloro-4-sulfamoyl-phenyl)-acetamide]: the melting point was in the range of 212.9 to 214.4 °C.

The molecule `NS(=O)(=O)c1ccc(NC(=O)Cc2cc(Oc3cc(Cl)cc(Cl)c3)c3occc3c2)c(Cl)c1` [Compound I-149, N-(2-Chloro-4-sulfamoyl-phenyl)-2-[7-(3,5-dichloro-phenoxy)-benzofuran-5-yl]-acetamide] showed a melting point of 215.1 to 216.6 °C.

As for `Cc1cc(OC[C@@H](O)CO)ccc1NC(=O)Cc1ccc(C)c(Oc2cc(Cl)cc(C#N)c2)c1` [Compound I-150, 2-[3-(3-Chloro-5-cyano-phenoxy)-4-methyl-phenyl]-N-[4-((S)-2,3-dihydroxy-propoxy)-2-methyl-phenyl]-acetamide], the melting point was in the range of 137.5 to 138.4 °C.

The molecule `Cc1cc(OCC[C@@H](O)CO)ccc1NC(=O)Cc1ccc(C)c(Oc2cc(Cl)cc(C#N)c2)c1` [Compound I-151, 2-[3-(3-Chloro-5-cyano-phenoxy)-4-methyl-phenyl]-N-[4-((R)-3,4-dihydroxy-butoxy)-2-methyl-phenyl]-acetamide] had a melting point of 104.9 to 106.4 °C.

`Cc1cc(S(=O)(=O)CC(=O)O)ccc1NC(=O)Cc1ccc(C)c(Oc2cc(Cl)cc(C#N)c2)c1` [Compound I-152, (4-{2-[3-(3-Chloro-5-cyano-phenoxy)-4-methyl-phenyl]-acetylamino}-3-methyl-benzenesulfonyl)-acetic acid] had a melting point of 180.5 to 181.4 °C.

In turn, `Cc1cc(S(=O)(=O)CCN)ccc1NC(=O)Cc1ccc(C)c(Oc2cc(Cl)cc(C#N)c2)c1` [Compound I-154, N-[4-(2-Amino-ethanesulfonyl)-2-methyl-phenyl]-2-[3-(3-chloro-5-cyano-phenoxy)-4-methyl-phenyl]-acetamide] returned a melting point of 92.4 to 95.5 °C.

For `Cc1cc(S(=O)(=O)CCCO)ccc1NC(=O)Cc1ccc(C)c(Oc2cc(Cl)cc(C#N)c2)c1` [Compound I-157, 2-[3-(3-Chloro-5-cyano-phenoxy)-4-methyl-phenyl]-N-[4-(3-hydroxy-propane-1-sulfonyl)-2-methyl-phenyl]-acetamide], the melting point was in the range of 78.9 to 79.5 °C.

Regarding `Cc1cc(N2CCCCS2(=O)=O)ccc1NC(=O)Cc1ccc(C)c(Oc2cc(Cl)cc(C#N)c2)c1` [Compound I-158, 2-[3-(3-Chloro-5-cyano-phenoxy)-4-methyl-phenyl]-N-[4-(1,1-dioxo-1λ^6-[1,2]thiazinan-2-yl)-2-methyl-phenyl]-acetamide], the melting point lay within 84.3 to 85.6 °C.

Molecule `Cc1cc(C(=O)CN2CCN(C)CC2)ccc1NC(=O)Cc1ccc(C)c(Oc2cc(Cl)cc(C#N)c2)c1` [Compound I-159, 2-[3-(3-Chloro-5-cyano-phenoxy)-4-methyl-phenyl]-N-{2-methyl-4-[2-(4-methyl-piperazin-1-yl)-acetyl]-phenyl}-acetamide] had a melting point of 62.3 to 64.1 °C.

As to `Cc1cc(N2CC[S+]([O-])CC2)ccc1NC(=O)Cc1ccc(C)c(Oc2cc(Cl)cc(C#N)c2)c1` [Compound I-160, 2-[3-(3-Chloro-5-cyano-phenoxy)-4-methyl-phenyl]-N-[2-methyl-4-(1-oxo-1λ^4-thiomorpholin-4-yl)-phenyl]-acetamide], the melting point is 181.3 to 182.1 °C.

In the case of `Cc1cc(N2CCS(=O)(=O)CC2)ccc1NC(=O)Cc1ccc(C)c(Oc2cc(Cl)cc(C#N)c2)c1` [Compound I-161, 2-[3-(3-Chloro-5-cyano-phenoxy)-4-methyl-phenyl]-N-[4-(1,1-dioxo-1λ^6-thiomorpholin-4-yl)-2-methyl-phenyl]-acetamide], the melting point is 64.8 to 65.4 °C.

`CCC(=O)N(C)S(=O)(=O)c1ccc(NC(=O)Cc2ccc(Cl)c(Oc3cc(Cl)cc(C#N)c3)c2F)c(Cl)c1` [Compound I-162, 2-[4-Chloro-3-(3-chloro-5-cyano-phenoxy)-2-fluoro-phenyl]-N-[2-chloro-4-(methyl-propionyl-sulfamoyl)-phenyl]-acetamide]: the melting point is 198.2 to 200.6 °C.

Molecule `CNS(=O)(=O)c1ccc(NC(=O)Cc2ccc(Cl)c(Oc3cc(Cl)cc(C#N)c3)c2F)c(Cl)c1` [Compound I-168, 2-[4-Chloro-3-(3-chloro-5-cyano-phenoxy)-2-fluoro-phenyl]-N-(2-chloro-4-methylsulfamoyl-phenyl)-acetamide] returned a melting point of 199.1 to 200 °C.

`Cc1cc(N2CCCS2(=O)=O)ccc1NC(=O)Cc1ccc(C)c(Oc2cc(Cl)cc(C#N)c2)c1` [Compound I-170, 2-[3-(3-Chloro-5-cyano-phenoxy)-4-methyl-phenyl]-N-[4-(1,1-dioxo-1λ^6-isothiazolidin-2-yl)-2-methyl-phenyl]-acetamide] displayed a melting point of 182.5 to 184.6 °C.

`COCC(=O)N(C)S(=O)(=O)c1ccc(NC(=O)Cc2ccc(Cl)c(Oc3cc(Cl)cc(C#N)c3)c2F)c(Cl)c1` [Compound I-171, 2-[4-Chloro-3-(3-chloro-5-cyano-phenoxy)-2-fluoro-phenyl]-N-{2-chloro-4-[(2-methoxy-acetyl)-methyl-sulfamoyl]-phenyl}-acetamide] returned a melting point of 183.2 to 185.5 °C.

Regarding `COCCC(=O)N(C)S(=O)(=O)c1ccc(NC(=O)Cc2ccc(Cl)c(Oc3cc(Cl)cc(C#N)c3)c2F)c(Cl)c1` [Compound I-172, 2-[4-Chloro-3-(3-chloro-5-cyano-phenoxy)-2-fluoro-phenyl]-N-{2-chloro-4-[(3-methoxy-propionyl)-methyl-sulfamoyl]-phenyl}-acetamide], the melting point fell in the range of 199.3 to 203 °C.

`CCOC(=O)C(=O)Nc1ccc(NC(=O)Cc2ccc(C)c(Oc3cc(Cl)cc(C#N)c3)c2)c(C)c1` [Compound I-178, N-(4-{2-[3-(3-Chloro-5-cyano-phenoxy)-4-methyl-phenyl]-acetylamino}-3-methyl-phenyl)-oxalamic acid ethyl ester] had a melting point of 182.5 to 183.9 °C.
